Assays:
[1] = system: DU145; assay: Cell-based proliferation assay, DU145; settings: Homo sapiens, DU-145; DU145 cells, 96 h treatment
Protocol: Human cancer cell lines PC3 and DU145 (human prostate cancer cell lines), were obtained from ATCC. They were cultured in the media according to the ATCC work instructions. PC3 and DU145 cells were seeded at 1,000 cells per well in 96-well plates, respectively. The plates were incubated at 37° C., 5% CO2, for 24 h. Cells were treated with compounds at various concentrations for 96 h. Cell proliferation was then quantified using Celltiter96 Aqueous One Solution Cell Proliferation Assay from Promega (Madison Wis.). Dose response curves were plotted to determine IC50 values for the compounds using XL-fit (ID Business Solution, Emeryville, Calif.).

[2] = biological target: T1, PI3K p110α/p85 (Homo sapiens, UniProt P42336); assay: PI3K assay ([γ33P]ATP, PtdIns/PtdSer coated plates); format: biochemical; settings: 2 μM ATP, 1 hour at RT; read-out: IC50 (PI3Kα)
T1 construct: made in house
Protocol: Recombinant PI3K p110α/p85 was prepared in-house. Phosphatidylinositol (PtdIns), phosphotidylserine (PtdSer) and all other unspecified chemicals were purchased from Sigma-Aldrich. [γ^33P]ATP and Optiphase scintillant were obtained from Perkin Elmer.
Assays were performed in a final assay volume of 25 μL in 384-well Maxisorp plates (Nunc). Compounds were tested at 8 concentrations in 3-fold serial dilution, generally starting from 10 μM. Maxisorp plates were coated with 20 μL/well of a 1:1 mixture of PtdIns and PtdSer [0.1 mg/mL each dissolved in chloroform:ethanol (3:7)] and left overnight in a fume hood at room temperature (RT) to dry.
The enzyme reaction was created by pipetting 5 μL/well of compound (in 2.5% DMSO), 10 μL/well of enzyme (0.5 μg/mL p110α+1 μg/mL p85), and 10 μL/well of 5 μM ATP with 5 μCi/mL [γ^33P]ATP in assay buffer (final concentrations: 0.2 μg/mL p110α, 2 μM ATP, […] [γ^33P]ATP in 1× assay buffer: 100 mM Tris-HCl pH 7.0, 200 mM NaCl, 8 mM MgCl2). The reaction was incubated for 1 hour at RT and terminated with 30 μL/well of 50 mM EDTA solution. The plate was then washed twice with TBS, dried, and added with 30 μL/well of scintillant before it was counted in a MicroBeta Trilux.

[3] = biological target: mTOR (Homo sapiens, UniProt P42345); assay: mTOR assay (phosphorylation of 4eBP1, [γ33P]-ATP filter plate); format: biochemical; settings: 10 μM ATP, 1 hour at room temperature
Protocol: Truncated mTOR kinase and His-tagged 4eBP1 were produced in-house. [γ^33P]-ATP was purchased from Amersham (GE Healthcare). All chemicals, unless otherwise stated, were from Sigma-Aldrich.
Phosphorylation assays were initially performed in a final volume of 20 μL in 384-well polypropylene plate (Greiner). Compounds were typically tested over the range from 100 μM to 0.006 μM, in 8 step dilutions, in duplicate. 10 μL/well of 2× Enzyme-Substrate solution (1.5 μg/mL mTOR, 40 μg/mL 4eBP1 in 1× assay buffer: 10 mM Hepes pH 7.5, 50 mM NaCl and 10 mM MnCl2) were first added to the sample plate containing 1 μL/well of test compound in neat DMSO. The reaction was initiated by adding 10 μL/well of 20 μM ATP solution (final assay concentration 10 μM ATP and 0.4 μCi/well of [γ^33P]-ATP). After 1 hour incubation at room temperature, the reaction was terminated with 40 μL/well of 20 mM EDTA/1 mM ATP solution.
50 μL/well of the stopped reaction mix was then transferred to 384-well MultiScreenHTS-PH filter plate (Millipore) pre-added with 50 μL/well of 1% phosphoric acid. The plate was washed 4 times with 120 μL/well of 0.5% phosphoric acid via vacuum filtration. Finally, 10 μL/well of Optiphase™ SuperMix liquid scintillation cocktail (Perkin Elmer) was added. After minimum 1 hour of incubation, counting was performed in a Wallac MicroBeta TriLux scintillation counter using coincidence counting mode with crosstalk correction.

T1 sequence (P42336 whole entry): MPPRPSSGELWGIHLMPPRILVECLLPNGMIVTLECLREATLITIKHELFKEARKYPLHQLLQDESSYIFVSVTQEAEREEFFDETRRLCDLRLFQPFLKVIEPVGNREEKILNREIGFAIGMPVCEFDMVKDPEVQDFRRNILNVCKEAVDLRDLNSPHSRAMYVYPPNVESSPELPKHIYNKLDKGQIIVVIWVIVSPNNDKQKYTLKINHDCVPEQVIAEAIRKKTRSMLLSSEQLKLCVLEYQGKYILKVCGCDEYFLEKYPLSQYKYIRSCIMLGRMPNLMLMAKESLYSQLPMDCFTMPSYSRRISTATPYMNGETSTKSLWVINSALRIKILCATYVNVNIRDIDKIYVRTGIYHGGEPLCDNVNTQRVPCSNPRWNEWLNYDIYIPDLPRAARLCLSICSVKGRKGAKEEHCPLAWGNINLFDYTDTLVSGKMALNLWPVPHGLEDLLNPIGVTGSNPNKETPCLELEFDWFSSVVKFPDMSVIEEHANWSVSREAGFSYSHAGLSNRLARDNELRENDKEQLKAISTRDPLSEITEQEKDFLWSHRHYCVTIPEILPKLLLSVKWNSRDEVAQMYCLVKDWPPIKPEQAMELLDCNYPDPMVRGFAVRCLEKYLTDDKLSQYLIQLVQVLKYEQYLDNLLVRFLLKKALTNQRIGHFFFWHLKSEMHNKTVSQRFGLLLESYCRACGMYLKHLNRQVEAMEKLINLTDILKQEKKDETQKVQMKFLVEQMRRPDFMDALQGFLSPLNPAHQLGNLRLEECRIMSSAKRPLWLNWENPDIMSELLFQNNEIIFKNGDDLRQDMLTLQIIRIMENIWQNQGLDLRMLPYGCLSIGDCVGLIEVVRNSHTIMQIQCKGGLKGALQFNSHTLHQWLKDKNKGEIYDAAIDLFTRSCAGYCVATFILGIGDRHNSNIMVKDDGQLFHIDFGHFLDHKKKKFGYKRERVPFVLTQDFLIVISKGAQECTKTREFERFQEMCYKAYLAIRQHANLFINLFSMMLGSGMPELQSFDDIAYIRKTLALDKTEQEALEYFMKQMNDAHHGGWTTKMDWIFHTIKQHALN
T1 sequence (P27986 whole entry partner): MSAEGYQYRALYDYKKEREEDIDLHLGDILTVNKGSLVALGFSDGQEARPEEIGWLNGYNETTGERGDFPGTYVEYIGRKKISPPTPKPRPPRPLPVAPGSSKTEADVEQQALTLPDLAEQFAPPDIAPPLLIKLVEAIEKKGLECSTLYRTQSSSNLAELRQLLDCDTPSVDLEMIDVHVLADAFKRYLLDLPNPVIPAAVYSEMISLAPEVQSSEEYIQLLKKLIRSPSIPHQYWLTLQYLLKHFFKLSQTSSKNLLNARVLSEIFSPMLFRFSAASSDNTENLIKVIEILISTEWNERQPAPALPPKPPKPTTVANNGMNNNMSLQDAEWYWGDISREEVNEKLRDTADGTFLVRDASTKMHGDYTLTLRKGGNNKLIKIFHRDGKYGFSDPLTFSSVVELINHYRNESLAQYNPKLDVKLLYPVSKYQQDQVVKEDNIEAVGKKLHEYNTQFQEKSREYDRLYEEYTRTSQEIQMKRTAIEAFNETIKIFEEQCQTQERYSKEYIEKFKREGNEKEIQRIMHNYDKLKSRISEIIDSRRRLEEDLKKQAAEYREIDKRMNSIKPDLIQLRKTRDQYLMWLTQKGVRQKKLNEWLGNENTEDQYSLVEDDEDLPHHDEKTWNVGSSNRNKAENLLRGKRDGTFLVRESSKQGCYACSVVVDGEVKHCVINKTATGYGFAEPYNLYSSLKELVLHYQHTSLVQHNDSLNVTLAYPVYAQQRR
Sequence of mTOR (P42345 1382-2549 limits assumed): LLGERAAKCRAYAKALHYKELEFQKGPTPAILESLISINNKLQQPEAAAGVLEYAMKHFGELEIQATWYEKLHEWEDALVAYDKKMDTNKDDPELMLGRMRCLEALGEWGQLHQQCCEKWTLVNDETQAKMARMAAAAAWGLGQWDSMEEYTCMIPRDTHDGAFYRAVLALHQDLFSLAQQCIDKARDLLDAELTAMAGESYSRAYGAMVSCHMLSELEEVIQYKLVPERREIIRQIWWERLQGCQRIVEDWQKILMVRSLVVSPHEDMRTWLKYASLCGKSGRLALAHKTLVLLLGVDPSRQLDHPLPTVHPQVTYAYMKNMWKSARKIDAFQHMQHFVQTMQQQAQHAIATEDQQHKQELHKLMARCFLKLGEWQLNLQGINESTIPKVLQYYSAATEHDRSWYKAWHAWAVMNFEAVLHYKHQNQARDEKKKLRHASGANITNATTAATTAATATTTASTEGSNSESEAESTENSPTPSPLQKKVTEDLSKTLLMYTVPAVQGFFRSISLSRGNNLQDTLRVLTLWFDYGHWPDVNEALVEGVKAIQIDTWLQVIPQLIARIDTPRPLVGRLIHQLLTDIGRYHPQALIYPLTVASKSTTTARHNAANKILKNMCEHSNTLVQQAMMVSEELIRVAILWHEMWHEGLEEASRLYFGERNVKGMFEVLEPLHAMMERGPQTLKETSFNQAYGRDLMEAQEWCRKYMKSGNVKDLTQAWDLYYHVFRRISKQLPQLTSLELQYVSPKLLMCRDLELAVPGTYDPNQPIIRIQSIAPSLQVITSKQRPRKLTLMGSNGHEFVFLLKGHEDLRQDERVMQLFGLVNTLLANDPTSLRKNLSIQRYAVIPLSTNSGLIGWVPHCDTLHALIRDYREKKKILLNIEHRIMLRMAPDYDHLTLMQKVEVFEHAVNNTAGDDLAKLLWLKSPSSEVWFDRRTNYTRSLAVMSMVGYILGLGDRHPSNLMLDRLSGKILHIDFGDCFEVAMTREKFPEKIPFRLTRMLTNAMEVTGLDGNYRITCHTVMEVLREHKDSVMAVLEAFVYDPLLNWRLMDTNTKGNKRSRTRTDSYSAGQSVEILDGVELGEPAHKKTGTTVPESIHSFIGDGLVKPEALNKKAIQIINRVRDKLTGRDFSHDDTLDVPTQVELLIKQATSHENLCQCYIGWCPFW

Oc1cccc(-c2nc(N3CCOCC3)nc3c2ncn3Cc2ccccc2)c1 [Compound 2]
IC50 [1]: 1 to 5 µM | IC50 [2]: < 1 µM | IC50 [3]: < 1 µM

COc1ccc(Cn2cnc3c(-c4cccc(O)c4)nc(N4CCOCC4)nc32)cc1 [Compound 8]
IC50 [1]: 1 to 5 µM | IC50 [2]: < 1 µM | IC50 [3]: < 1 µM

C=CCCn1cnc2c(-c3cccc(O)c3)nc(N3CCOCC3)nc21 [Compound 22]
IC50 [1]: ≤ 1 µM | IC50 [2]: < 1 µM | IC50 [3]: < 1 µM

N#CCn1cnc2c(-c3cccc(O)c3)nc(N3CCOCC3)nc21 [Compound 35]
IC50 [1]: 1 to 5 µM | IC50 [2]: < 1 µM | IC50 [3]: < 1 µM

CC(c1ccccc1)n1cnc2c(-c3cccc(O)c3)nc(N3CCOCC3)nc21 (centres unmarked) [Compound 36]
IC50 [1]: 1 to 5 µM | IC50 [2]: < 1 µM | IC50 [3]: < 1 µM

CCNc1nc2c(-c3cccc(O)c3)nc(N3CCOCC3)nc2n1C(C)CC (centres unmarked) [Compound 122]
IC50 [2]: < 1 µM | IC50 [3]: < 1 µM

CCC(C)n1c(NC(C)C)nc2c(-c3cccc(O)c3)nc(N3CCOCC3)nc21 (centres unmarked) [Compound 123, 3-(9-sec-Butyl-8-isopropylamino-2-morpholin-4-yl-9H-purin-6-yl)-phenol]
IC50 [2]: < 1 µM | IC50 [3]: < 1 µM

CCC(C)n1c(SC)nc2c(-c3cccc(O)c3)nc(N3CCOCC3)nc21 (centres unmarked) [Compound 124, 3-(9-sec-Butyl-8-methylsulfanyl-2-morpholin-4-yl-9H-purin-6-yl)-phenol]
IC50 [2]: < 1 µM | IC50 [3]: < 1 µM

CCC(C)n1c(N2CCCC2)nc2c(-c3cccc(O)c3)nc(N3CCOCC3)nc21 (centres unmarked) [Compound 125]
IC50 [2]: < 1 µM | IC50 [3]: < 1 µM

CCC(C)n1c(-c2ccccc2)nc2c(-c3cccc(O)c3)nc(N3CCOCC3)nc21 (centres unmarked) [Compound 126]
IC50 [2]: < 1 µM | IC50 [3]: < 1 µM

CCC(C)n1c(NCCN(C)C)nc2c(-c3cccc(O)c3)nc(N3CCOCC3)nc21 (centres unmarked) [Compound 127]
IC50 [2]: < 1 µM | IC50 [3]: < 1 µM

CCC(C)n1c(NCCOC)nc2c(-c3cccc(O)c3)nc(N3CCOCC3)nc21 (centres unmarked) [Compound 128]
IC50 [2]: < 1 µM | IC50 [3]: < 1 µM

CCC(C)n1c(Cl)nc2c(-c3cccc(O)c3)nc(N3CCOCC3)nc21 (centres unmarked) [Compound 129]
IC50 [2]: < 1 µM | IC50 [3]: < 1 µM

CCC(C)n1c(S(C)(=O)=O)nc2c(-c3cccc(O)c3)nc(N3CCOCC3)nc21 (centres unmarked) [Compound 130, 3-(9-sec-Butyl-8-methanesulfonyl-2-morpholin-4-yl-9H-purin-6-yl)-phenol]
IC50 [2]: < 1 µM | IC50 [3]: < 1 µM

Nc1ccc(-c2nc(N3CCOCC3)nc3c2ncn3Cc2cccc([N+](=O)[O-])c2)cn1 [Compound 131]
IC50 [2]: < 1 µM | IC50 [3]: < 1 µM

CCC(C)n1cnc2c(-c3ccc(N)nc3)nc(N3CCOCC3)nc21 (centres unmarked) [Compound 132, 5-(9-sec-Butyl-2-morpholin-4-yl-9H-purin-6-yl)-pyridin-2-ylamine]
IC50 [2]: < 1 µM | IC50 [3]: < 1 µM

Nc1ccc(-c2nc(N3CCOCC3)nc3c2ncn3C2CCCC2)cn1 [Compound 133]
IC50 [2]: < 1 µM | IC50 [3]: < 1 µM

COCC(C)n1cnc2c(-c3ccc(N)nc3)nc(N3CCOCC3)nc21 (centres unmarked) [Compound 134, 5-[9-(2-Methoxy-1-methyl-ethyl)-2-morpholin-4-yl-9H-purin-6-yl]-pyrirlin-2-ylamino]
IC50 [2]: < 1 µM | IC50 [3]: < 1 µM

CC(C)n1cnc2c(-c3ccc(N)nc3)nc(N3CCOCC3)nc21 [Compound 135]
IC50 [2]: < 1 µM | IC50 [3]: < 1 µM

CC(C)C(C)n1cnc2c(-c3ccc(N)nc3)nc(N3CCOCC3)nc21 (centres unmarked) [Compound 136]
IC50 [2]: < 1 µM | IC50 [3]: < 1 µM

CCC(C#N)n1cnc2c(-c3ccc(N)nc3)nc(N3CCOCC3)nc21 (centres unmarked) [Compound 137]
IC50 [2]: 1 to 5 µM | IC50 [3]: < 1 µM

CCC(CC)n1cnc2c(-c3ccc(N)nc3)nc(N3CCOCC3)nc21 [Compound 138]
IC50 [2]: < 1 µM | IC50 [3]: < 1 µM

N#CCn1cnc2c(-c3ccc(O)nc3)nc(N3CCOCC3)nc21 [Compound 139]
IC50 [2]: > 5 µM | IC50 [3]: > 5 µM

COCCn1cnc2c(-c3cncc(F)c3)nc(N3CCOCC3)nc21 [Compound 140]
IC50 [2]: 1 to 5 µM | IC50 [3]: > 5 µM

— US20110009403A1, “2-MORPHOLINYLPURINES AS INHIBITORS OF PI3K” (S*BIO Pte Ltd., priority 2007, published 2011)
